Assay results from ChEMBL document CHEMBL5303573, “Mapping human microbiome drug metabolism by gut bacteria and their genes” (Nature, 2019).

Legend:
[1] = The drug is tested on Ruminococcus gnavus strain: ATCC29149 for biotransformation. The drug concentrations were measured before and after a 12-h incubation by liquid-chromatography-coupled mass spectrometry (LC–MS); settings: mediterraneibacter gnavus, 2 µM
[2] = The drug is tested on Blautia luti strain: DSM14534 for biotransformation. The drug concentrations were measured before and after a 12-h incubation by liquid-chromatography-coupled mass spectrometry (LC–MS); format: ADME; parameters: dose 2 uM, timepoint 0 vs 12 hours; settings: 2 µM
[3] = The drug is tested on Edwardsiella tarda strain: ATCC23685 for biotransformation. The drug concentrations were measured before and after a 12-h incubation by liquid-chromatography-coupled mass spectrometry (LC–MS); settings: 2 µM
[4] = The drug is tested on Clostridium scindens strain: ATCC35704 for biotransformation. The drug concentrations were measured before and after a 12-h incubation by liquid-chromatography-coupled mass spectrometry (LC–MS); settings: 2 µM
[5] = The drug is tested on Bacteroides finegoldii strain: DSM17565 for biotransformation. The drug concentrations were measured before and after a 12-h incubation by liquid-chromatography-coupled mass spectrometry (LC–MS); settings: 2 µM
[6] = The drug is tested on Parabacteroides merdae strain: ATCC43184 for biotransformation. The drug concentrations were measured before and after a 12-h incubation by liquid-chromatography-coupled mass spectrometry (LC–MS); settings: 2 µM
[7] = The drug is tested on Bacteroides cellulosilyticus strain: DSM14838 for biotransformation. The drug concentrations were measured before and after a 12-h incubation by liquid-chromatography-coupled mass spectrometry (LC–MS); settings: 2 µM
[8] = bacteroides thetaiotaomicron, 12 h, 2 µM
Description: The drug is tested on Bacteroides thetaiotaomicron strain: 3731 for biotransformation. The drug concentrations were measured before and after a 12-h incubation by liquid-chromatography-coupled mass spectrometry (LC–MS)

[9] = The drug is tested on Anaerotruncus colihominis strain: DSM17241 for biotransformation. The drug concentrations were measured before and after a 12-h incubation by liquid-chromatography-coupled mass spectrometry (LC–MS); settings: 2 µM
[10] = parabacteroides distasonis, 12 h, 2 µM
Description: The drug is tested on Parabacteroides distasonis strain: ATCC8503 for biotransformation. The drug concentrations were measured before and after a 12-h incubation by liquid-chromatography-coupled mass spectrometry (LC–MS)

[11] = The drug is tested on Bacteroides caccae strain: ATCC43185 for biotransformation. The drug concentrations were measured before and after a 12-h incubation by liquid-chromatography-coupled mass spectrometry (LC–MS); settings: 2 µM
[12] = The drug is tested on Collinsella intestinalis strain: DSM13280 for biotransformation. The drug concentrations were measured before and after a 12-h incubation by liquid-chromatography-coupled mass spectrometry (LC–MS); settings: 2 µM
[13] = bacteroides stercoris, 12 h, 2 µM
Description: The drug is tested on Bacteroides stercoris strain: ATCC43183 for biotransformation. The drug concentrations were measured before and after a 12-h incubation by liquid-chromatography-coupled mass spectrometry (LC–MS)

[14] = The drug is tested on Anaerococcus hydrogenalis strain: DSM7454 for biotransformation. The drug concentrations were measured before and after a 12-h incubation by liquid-chromatography-coupled mass spectrometry (LC–MS); settings: 2 µM
[15] = The drug is tested on Enterobacter cancerogenus strain: ATCC35316 for biotransformation. The drug concentrations were measured before and after a 12-h incubation by liquid-chromatography-coupled mass spectrometry (LC–MS); settings: 2 µM
[16] = The drug is tested on Clostridium sp. strain: fecal isolate for biotransformation. The drug concentrations were measured before and after a 12-h incubation by liquid-chromatography-coupled mass spectrometry (LC–MS); settings: 2 µM
[17] = The drug is tested on Clostridium sporogenes strain: ATCC15579 for biotransformation. The drug concentrations were measured before and after a 12-h incubation by liquid-chromatography-coupled mass spectrometry (LC–MS); settings: 2 µM
[18] = The drug is tested on Providencia rettgeri strain: DSM1131 for biotransformation. The drug concentrations were measured before and after a 12-h incubation by liquid-chromatography-coupled mass spectrometry (LC–MS); format: ADME; parameters: dose 2 uM, timepoint 0 vs 12 hours; settings: 2 µM

| Compound | Bacterial Biotransformation [1] | Bacterial Biotransformation [2] | Bacterial Biotransformation [3] | Bacterial Biotransformation [4] | Bacterial Biotransformation [5] | Bacterial Biotransformation [6] | Bacterial Biotransformation [7] | Bacterial Biotransformation [8] | Bacterial Biotransformation [9] | Bacterial Biotransformation [10] | Bacterial Biotransformation [11] | Bacterial Biotransformation [12] | Bacterial Biotransformation [13] | Bacterial Biotransformation [14] | Bacterial Biotransformation [15] | Bacterial Biotransformation [16] | Bacterial Biotransformation [17] | Bacterial Biotransformation [18] |
| --- | --- | --- | --- | --- | --- | --- | --- | --- | --- | --- | --- | --- | --- | --- | --- | --- | --- | --- |
| NC12CC3CC(CC(C3)C1)C2 [AMANTADINE] | Compound NOT metabolized | Compound NOT metabolized | Compound NOT metabolized | Compound NOT metabolized | Compound NOT metabolized | Compound NOT metabolized | Compound metabolized | Compound NOT metabolized | Compound NOT metabolized | Compound NOT metabolized | Compound NOT metabolized | Compound NOT metabolized | Compound NOT metabolized | Compound NOT metabolized | Compound NOT metabolized | Compound NOT metabolized | – | – |
| CC(C)(C#N)c1cc(Cn2cncn2)cc(C(C)(C)C#N)c1 [ANASTROZOLE] | Compound NOT metabolized | Compound NOT metabolized | Compound NOT metabolized | Compound NOT metabolized | Compound NOT metabolized | Compound metabolized | Compound NOT metabolized | Compound NOT metabolized | Compound NOT metabolized | – | Compound metabolized | – | Compound metabolized | Compound NOT metabolized | Compound NOT metabolized | Compound metabolized | Compound metabolized | – |
| CC(C)NCC(O)COc1ccc(CC(N)=O)cc1 (centres undefined) [ATENOLOL] | Compound NOT metabolized | Compound NOT metabolized | Compound NOT metabolized | Compound NOT metabolized | Compound NOT metabolized | – | Compound NOT metabolized | – | Compound NOT metabolized | Compound NOT metabolized | – | Compound NOT metabolized | – | Compound NOT metabolized | Compound NOT metabolized | Compound NOT metabolized | Compound NOT metabolized | – |
| CN(C)CCOC(c1ccc(Cl)cc1)c1ccccn1.O=C(O)/C=C\C(=O)O (centres undefined) [CARBINOXAMINE MALEATE] | Compound NOT metabolized | Compound NOT metabolized | Compound NOT metabolized | Compound NOT metabolized | Compound NOT metabolized | Compound NOT metabolized | Compound NOT metabolized | Compound NOT metabolized | Compound NOT metabolized | Compound NOT metabolized | Compound NOT metabolized | Compound NOT metabolized | Compound NOT metabolized | Compound NOT metabolized | Compound NOT metabolized | Compound NOT metabolized | Compound NOT metabolized | Compound NOT metabolized |
| CN1C(=O)CCS(=O)(=O)C1c1ccc(Cl)cc1 (centres undefined) [CHLORMEZANONE] | – | – | Compound NOT metabolized | Compound NOT metabolized | Compound NOT metabolized | – | Compound NOT metabolized | – | Compound NOT metabolized | Compound NOT metabolized | Compound NOT metabolized | Compound NOT metabolized | – | Compound NOT metabolized | Compound NOT metabolized | Compound metabolized | Compound NOT metabolized | – |
| Clc1cccc(Cl)c1N=C1NCCN1 [CLONIDINE] | Compound NOT metabolized | Compound NOT metabolized | Compound NOT metabolized | Compound NOT metabolized | Compound NOT metabolized | Compound NOT metabolized | Compound NOT metabolized | Compound metabolized | Compound NOT metabolized | Compound NOT metabolized | Compound NOT metabolized | Compound NOT metabolized | Compound metabolized | Compound NOT metabolized | Compound NOT metabolized | Compound NOT metabolized | Compound NOT metabolized | Compound NOT metabolized |
| CN1C[C@H](C(=O)N[C@]2(C)O[C@@]3(O)[C@@H]4CCCN4C(=O)[C@H](Cc4ccccc4)N3C2=O)C=C2c3cccc4[nH]cc(c34)C[C@H]21.CN1C[C@H](C(=O)N[C@]2(C)O[C@@]3(O)[C@@H]4CCCN4C(=O)[C@H](Cc4ccccc4)N3C2=O)C=C2c3cccc4[nH]cc(c34)C[C@H]21.O=C(O)C(O)C(O)C(=O)O [ERGOTAMINE TARTRATE] | Compound metabolized | Compound metabolized | Compound metabolized | Compound metabolized | Compound metabolized | Compound metabolized | Compound metabolized | Compound metabolized | Compound metabolized | Compound metabolized | Compound metabolized | Compound NOT metabolized | Compound metabolized | Compound metabolized | Compound metabolized | – | Compound metabolized | Compound metabolized |
